Columns and labels:
[1] = system: human umbilical vein endothelial cells (HUVECs); assay: Proliferation of HUVECs (CyQUANT kit); assay type: cell-based; conditions: 48 hours with peptide, negative control (untreated) = 100
Protocol: In order to investigate the effect of the 4 peptides prepared in Example 1 on blood vessel formation, human umbilical vein endothelial cells (HUVECs) were treated with the peptide of the present invention and their proliferation was observed.
HUVECs were cultured in endothelial cell basal medium-2 (EBM-2, Clonetics Co., San Diego, USA) containing 2% fetal bovine serum (FBS). The cultured HUVECs were transferred to a 96-well plate, with 1000 cells per each well. After culturing for 24 hours followed by addition of the 4 peptides of the peptide of the present invention to each well, they were further cultured for 48 hours. The cells treated with VEGF instead of the peptide of the present invention and those treated with nothing were cultured under the same condition, as positive control group and negative control group, respectively. Upon completion of the culturing, the degree of cell proliferation was measured using the CyQUANT kit (Invitrogen, USA).

HUVECs = assay: Migration of HUVECs through polycarbonate filter chamber; assay type: cell-based, human; conditions: 37° C. for 10 hours, negative control (untreated) = 100
Protocol: In order to investigate the effect of the 4 peptides prepared in Example 1 on blood vessel formation, migration of HUVECs was measured.
The bottom portion of a chamber of a 24-well plate (Corning Costar, USA) having a polycarbonate filter with pores therebelow was coated with 0.5 mg/mL collagen type 1 ([…]). After adding EBM-2 containing the 4 peptides of the peptide of the present invention to the bottom portion of the chamber, HUVECs were inoculated at the upper portion of the chamber, with 1×10^5 cells per well. After incubation at 37° C. for 10 hours, the cells that had passed through the polycarbonate filter were fixed with methanol, stained with hematoxylin, and counted under a microscope.

Row | Substance | Cell proliferation (%) [1] [%] | Cell migration (%) (HUVECs)
1 | NQES (Pep_10 Artificial Peptide for Promotion of Angiogenesis) | 146.5 | 173.2
2 | PKES (Pep_9 Artificial Peptide for Promotion of Angiogenesis) | 212.5 | 156.4
3 | SDRGA (Pep_8 Artificial Peptide for Promotion of Angiogenesis) | 209.2 | 147.0
4 | SEGQK (Pep_7 Artificial Peptide for Promotion of Angiogenesis) | 203.3 | 155.4
5 | VEGF | 166.0 | 146.3
